We go through 10 compounds from patent US10533201B2, “Enzymatic transphosphorylation of sugar substrates” (priority 2014, dated 2020).

Assay type in all cases: biochemical
Assay [1] deals with T1, αGlc 1-P phosphatase (Escherichia coli, UniProt P19926, D396N/Q163K/Y105D).
T1 construct: Strep-tag (N); made in house; host or cells: E. coli Origami B (DE3), cytoplasmic, pMS470_dsbC vector (DsbC co-expressed)
As to conditions: 20 mM substrate; for hydrolysis by αGlc 1-P phosphatase (in words): pyrophosphate and phytate at pH 7.0 and pH 4.5. The method, then:
Inorganic phosphate was determined colorimetrically at 850 nm (56).
Hydrolysis reactions were carried out at an initial substrate concentration of 20 mM. […] Samples were taken in 15 min intervals, heat-treated (99° C., 5 min), and centrifuged at 20,000 g for 5 min. The release of phosphate was measured, and the initial rate V (mM min^−1) was determined from the linear relationship between phosphate concentration and time. […] (2)
A series of phosphorylated sugars were tested as substrates for hydrolysis by phosphatase.

In assay [2] the target is T1, αGlc 1-P phosphatase. The settings on record: for Glc 6-P kcat_app (formation) / Fru 6-P kcat_app (formation) / Glc 1-P kcat_app (consumption) / Fru 1-P kcat_app (formation) / Phosphate kcat_app (release): pH 7.0, 37° C. The method, then:
Fru 6-P was measured using an assay with mannitol 1-phosphate dehydrogenase (52). […] (1)
Fru (100, 200, 400 or 600 mM) or Glc (200 mM) was used as the acceptor substrate. […] Sampling was done to allow for determination of initial rates, but the full reaction time course was also recorded. Relevant kcat_app values for substrate consumption, phosphate release, and phosphoryl transfer were obtained from the corresponding V values using equation 2. Internal consistency of the data was always checked by mass balance. pH dependence of phosphoryl transfer. […] A 50 mM Mes buffer was used, except at pH ≤6.0 where 50 mM Mes and 20 mM sodium acetate were used, and at pH 8.0 where 50 mM Mes and 50 mM Tes were used. Buffer pH values were adjusted at 37° C. and controlled before and after recording each enzyme-catalyzed reaction. Sampling and analyses were as described above.
For data analysis by non-linear least-squares regression, SigmaPlot 2004 version 9.0 was used. Equation 3 describes a pH dependence where activity (expressed as logarithmic kcat_app) is constant at low pH and decreases above pKB. C is the pH-independent value of kcat_app at the optimum state of protonation, K is the proton dissociation constant and [H^+] is the proton concentration. log(kcat_app)=log(C/(1+K/[H^+])) (3) High Performance Anion Exchange Chromatography with Pulsed Amperometric Detection (HPAEC-PAD).
Selected samples were analyzed on a Dionex BioLC system (Dionex Corporation, Sunnyvale, USA) equipped with a CarboPac PA10 column (4×250 mm) and an Amino Trap guard column (4×50 mm) thermostated at 30° C. […] Elution was carried out at a flow rate of 0.9 mL/min with the following method: isocratic flow of 52 mM NaOH for 20 min, followed by a linear gradient from 100 mM NaOAc to 400 mM NaOAc, applied within 25 min in an isocratic background of 100 mM NaOH. The column was washed for 5 min with 52 mM NaOH.

A further assay has as its target glucose-1-phosphatase (Escherichia coli, UniProt P19926, D396N/Q163K/Y105D). The settings on record: 20 mM αGlc 1-P and 200 mM acceptor. As to the method: FIG. 10: Acceptor substrates phosphorylated by glucose-1-phosphatase. […] Product yields were determined at conversions >90% except for N-acetyl D-glucosamine (GlcNAc) 38%, D-glucosamine (D-GlcN) 81%, D-xylose (D-Xyl) 69%, L-Arabinose (L-Ara) 86%, D-Xylitol (D-Xol) 89% and L-Fucose (L-Fuc) 75%, respectively. All acceptors are phosphorylated at the C1-OH position except for (*) D-glucosamine where the predominant product was phosphorylated at the C6-OH. Light grey bars indicate rS/rP ratio, while the dark grey bars indicate the product yield.
Product yields were determined at conversions >90% except for N-acetyl D-glucosamine (GlcNAc) 38%, D-glucosamine (D-GlcN) 81%, D-xylose (D-Xyl) 69%, L-Arabinose (L-Ara) 86%, D-Xylitol (D-Xol) 89% and L-Fucose (L-Fuc) 75%, respectively. All acceptors are phosphorylated at the C1-OH position except for (*) D-glucosamine where the predominant product was phosphorylated at the C6-OH. Light grey bars indicate rS/rP ratio, while the dark grey bars indicate the product yield.

Where [3] appears, read: 0.1 μM enzyme, 37° C., 50 mM Mes pH 7.0, n.d. = no activity above assay detection limit.
Setting [4] is: 200 mM Glc acceptor, 20 mM αGlc 1-P.
The mark [5] stands for this setting: 200 mM Glc acceptor, 20 mM αGlc 1-P, pH 7.0.

Like-named read-outs stand apart in the source and are kept apart here.

T1 sequence (P19926 other isoform, or with tags, fused parts or gaps Y105D/Q163K/D396N): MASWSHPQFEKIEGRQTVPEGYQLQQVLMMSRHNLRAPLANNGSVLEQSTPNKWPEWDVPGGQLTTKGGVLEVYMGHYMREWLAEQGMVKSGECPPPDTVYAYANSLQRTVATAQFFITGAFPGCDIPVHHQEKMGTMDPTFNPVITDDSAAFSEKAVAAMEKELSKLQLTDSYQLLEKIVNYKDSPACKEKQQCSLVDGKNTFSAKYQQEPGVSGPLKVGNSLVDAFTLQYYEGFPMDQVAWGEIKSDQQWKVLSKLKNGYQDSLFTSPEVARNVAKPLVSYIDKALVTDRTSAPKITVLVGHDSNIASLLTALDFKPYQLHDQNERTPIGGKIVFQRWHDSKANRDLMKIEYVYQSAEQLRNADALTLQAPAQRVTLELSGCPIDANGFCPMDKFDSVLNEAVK
glucose-1-phosphatase, sequence (P19926 other isoform, or with tags, fused parts or gaps Y105D/Q163K/D396N): as above

On to `O=C[C@H](O)[C@@H](O)[C@H](O)[C@H](O)COP(=O)(O)O` [Glc 6-P, D-glucose-6-phosphate], for which the “αGlc 1-P phosphatase kcat_app, hydrolysis” value on αGlc 1-P phosphatase [1] (setting [3]) stood at 56 s⁻¹. The “kcat_app ratio for formation of Glc 6-P and phosphate” value at αGlc 1-P phosphatase [2] (setting [4]) came out at 8.5. For the same compound, the “kcat_app for Glc 6-P synthesis” value at αGlc 1-P phosphatase [2] (setting [5]) is 34 s⁻¹. For the same compound, the “Glc 6-P kcat_app (formation)” value on αGlc 1-P phosphatase [2] (Fru 100 mM, 20 mM αGlc 1-P) is 5 s⁻¹; at αGlc 1-P phosphatase [2] (Fru 200 mM, 20 mM αGlc 1-P), 6 s⁻¹; at αGlc 1-P phosphatase [2] (Fru 400 mM, 20 mM αGlc 1-P), 4 s⁻¹; on αGlc 1-P phosphatase [2] (Fru 600 mM, 20 mM αGlc 1-P), 5 s⁻¹.
Regarding `N[C@H]1C(O)O[C@H](CO)[C@H](O)[C@@H]1O` (stereo partly drawn) [D-galactosamine], at glucose-1-phosphatase, the “phosphorylation of acceptor by glucose-1-phosphatase (in words)” value is “not phosphorylated”.
With `O=C(CO)[C@@H](O)[C@H](O)[C@H](O)COP(=O)(O)O` [Fru 6-P, D-fructose-6-phosphate], the “αGlc 1-P phosphatase kcat_app, hydrolysis” value at αGlc 1-P phosphatase [1] (setting [3]) is recorded as 22^a s^−1. Besides, the “Fru 6-P kcat_app (formation)” value at αGlc 1-P phosphatase [2] (Fru 100 mM, 20 mM αGlc 1-P) is 11^b s^−1; at αGlc 1-P phosphatase [2] (Fru 200 mM, 20 mM αGlc 1-P) it was 20^ s^−1; at αGlc 1-P phosphatase [2] (Fru 400 mM, 20 mM αGlc 1-P) it was 28^ s^−1; on αGlc 1-P phosphatase [2] (Fru 600 mM, 20 mM αGlc 1-P), 36^c s^−1.
Consider `O=P(O)(O)O[C@H]1O[C@H](CO)[C@@H](O)[C@H](O)[C@H]1O` [αGlc 1-P, alpha-glucose-1-phosphate], for which, on αGlc 1-P phosphatase [1] (setting [3]), the “αGlc 1-P phosphatase kcat_app, hydrolysis” value turned out to be 40 s⁻¹. On αGlc 1-P phosphatase [2] (200 mM Fru, 20 mM α-Glc 1-P), the “enhancement of α-Glc 1-P consumption rate compared to control without Fru” value was “about 3 fold”. Besides, on αGlc 1-P phosphatase [2] (setting [5]), the “kcat_app for α-Glc 1-P consumption” value came to 40 s⁻¹. Moreover, the “Glc 1-P kcat_app (consumption)” value at αGlc 1-P phosphatase [2] (Fru 0 mM, 20 mM αGlc 1-P) is 40 s⁻¹; on αGlc 1-P phosphatase [2] (Fru 100 mM, 20 mM αGlc 1-P), 73 s⁻¹; on αGlc 1-P phosphatase [2] (Fru 200 mM, 20 mM αGlc 1-P), 137 s⁻¹; at αGlc 1-P phosphatase [2] (Fru 400 mM, 20 mM αGlc 1-P) it was 162 s⁻¹; on αGlc 1-P phosphatase [2] (Fru 600 mM, 20 mM αGlc 1-P), 189 s⁻¹. The “increase of kcat_app (α-Glc 1-P) in hyperbolic dependence of the Fru concentration” value at αGlc 1-P phosphatase [2] (Fru 100-600 mM) is on record as “about 5 fold”.
`O=C[C@H](O)[C@@H](O)[C@H](O)[C@H](O)C(=O)O` [D-Glucuronic acid]: at glucose-1-phosphatase, the “phosphorylation of acceptor by glucose-1-phosphatase (in words)” value is recorded as “not phosphorylated”.
Consider `O=C(COP(=O)(O)O)[C@@H](O)[C@H](O)[C@H](O)CO` [Fru 1-P, D-fructose 1-phosphate], for which, on αGlc 1-P phosphatase [1] (setting [3]), the “αGlc 1-P phosphatase kcat_app, hydrolysis” value was 22 s⁻¹. The “Fru 1-P kcat_app (formation)” value on αGlc 1-P phosphatase [2] (Fru 100 mM, 20 mM αGlc 1-P) is 39 s⁻¹; at αGlc 1-P phosphatase [2] (Fru 200 mM, 20 mM αGlc 1-P), 88 s⁻¹; on αGlc 1-P phosphatase [2] (Fru 400 mM, 20 mM αGlc 1-P), 111^a s^−1; on αGlc 1-P phosphatase [2] (Fru 600 mM, 20 mM αGlc 1-P), 135 s⁻¹.
On to `O=P(O)(O)O[C@H]1[C@H](OP(=O)(O)O)[C@@H](OP(=O)(O)O)[C@H](OP(=O)(O)O)[C@@H](OP(=O)(O)O)[C@H]1OP(=O)(O)O` [Phytate, myo-inositol hexakisphosphate], for which the “hydrolysis by αGlc 1-P phosphatase (in words)” value on αGlc 1-P phosphatase [1] is given as “weakly active”. At αGlc 1-P phosphatase [1] (reactions at pH 7.0 and pH 4.5 (50 mM sodium acetate), phytate active only at pH 4.5, n.d. = no activity above detection limit), the “αGlc 1-P phosphatase kcat_app, hydrolysis” value amounted to 2.1 s⁻¹.
With `O=P(O)(O)O[C@@H]1O[C@H](CO)[C@@H](O)[C@H](O)[C@H]1O` [βGlc 1-P], the “hydrolysis by αGlc 1-P phosphatase (in words)” value at αGlc 1-P phosphatase [1] was “completely inactive”.
Still for that read-out and setting: then `O=P(O)(O)OP(=O)(O)O` [Pyrophosphate], with “not hydrolyzed”.
For the compound phosphate, the “decrease of phosphate release rate compared to control without Fru” value on αGlc 1-P phosphatase [2] (200 mM Fru, 20 mM α-Glc 1-P) is listed as “about 2 fold”. Moreover, the “suppression of phosphate release rate compared to control reaction lacking Glc” value on αGlc 1-P phosphatase [2] (setting [4]) is given as “about 10 fold”. Also, the “kcat_app of phosphate formation” value at αGlc 1-P phosphatase [2] (setting [5]) worked out at 4 s⁻¹. For the same compound, the “Phosphate kcat_app (release)” value at αGlc 1-P phosphatase [2] (Fru 0 mM, 20 mM αGlc 1-P) came to 40 s⁻¹; at αGlc 1-P phosphatase [2] (Fru 100 mM, 20 mM αGlc 1-P), 21 s⁻¹; at αGlc 1-P phosphatase [2] (Fru 200 mM, 20 mM αGlc 1-P), 18 s⁻¹; on αGlc 1-P phosphatase [2] (Fru 400 mM, 20 mM αGlc 1-P), 14 s⁻¹; on αGlc 1-P phosphatase [2] (Fru 600 mM, 20 mM αGlc 1-P), 13 s⁻¹.
